Columns and labels:
[1] = tested on: Human promyelocytic leukemia HL-60 cells; test: Cell differentiation of HL-60 cells by nitroblue tetrazolium (NBT) reduction; assay type: cell-based; conditions: 50% differentiation or effective concentration, read-out: NBT ED50
Protocol: Human promyelocytic leukemia HL-60 cells were cultured in RPMI-1640 medium supplemented by 10% heat-inactivated calf serum and 100 U/ml of penicillin plus 100 μg/ml of streptomycin. The flasks containing cells and medium were incubated in an incubator with 5% CO2 at 37° C. Log phase cells were seeded into the medium at a concentration of 1.2×10^5to 1.4×10^5 cells per ml and cultured in flasks containing 5 ml of medium. Each group consisted of three flasks. Different concentrations of chalcone-retinoids were added. At intervals following the addition of chalcone-retinoids to the cultures, a small portion of cells was removed and live cells were counted under a light microscope using a dye-exclusionmethod with trypan blue. Cell differentiation was judged in terms of morphology and nitroblue tetrazolium (NBT) reduction.
For a determination of NBT reducing activity, a portion of the chalcone-retinoid-treated cells was removed at intervals following treatment and centrifuged. After centrifugation, 0.5 ml of 0.1% NBT (containing 100 ng TPA) was added to each tube. The contents of the test tubes were then incubated for 1 hour at 37° C. Cell smears were prepared from the cell sediment and stained using the Wright-Giemsa technique. For each smear prepared, 200 cells were isolated for examination under a light microscope with an oil immersion lens. Cells stained with blue-black granules were considered NBT-positive cells. The 50% differentiation or effective concentration (ED50 or EC50) is shown in terms of molar (M) concentration of the […] tested.

cancer cells = test: MTT assay for inhibitory effect on cancer cells (monolayer culture); assay type: cell-based; conditions: 120 h, 5 day culture, 1200 tumor cells per well, cell line not named, read-out: MTT ED50
Protocol: For a monolayer culture to test for the inhibitory effect of chalcone retinoids on cancer cells, 0.5 ml of trypsin solution (0.3 gm/ml) was added to the flasks for digestion. Microtiter plates (96 well) were used for the cell culture and 200 μl of cell suspension (1200 tumor cells) were placed in each well and incubated at 37° C. for 24 hours. Following the addition of the test compound, the control and treated flasks were placed in a CO2 incubator for 5 day culture. For the MTT assay, 200 μl of MTT solution (5 mg in 10 ml of phosphate buffer) plus the medium were added and incubated for another 4 hours. Following incubation, the supernatant was discarded and 200 μl of DMSO was added to each well. With a mild agitation the OD values were determined by the MR 700 Elisa at 570 nm (reference wavelength was 450 nm). The ED50 of the compound and tumor cell survival rate [formula] as percent inhibition were calculated.

[2] = tested on: human acute myeloid leukemia (AML), neuroblastoma, teratocarcinoma, melanoma, and rat rhabdomyosarcoma cells; conditions: Smith et al., J. Clin. Oncol. 10 (5):839-864 (1992); cited from earlier work
[3] = Preuss-Ueberschar et al., Drug Res. 34:1305-1313 (1984); cited from earlier work
melanoma cell = conditions: Jing et al. (1992); cited from earlier work

| SMILES | EC50 [1] [µM] | IC50 (cancer cells) [µM] | other results |
| --- | --- | --- | --- |
| CC(C)(C)c1cc(C(=O)Nc2ccc(C(=O)Nc3ccc(O)cc3)cc2)cc(C(C)(C)C)c1O [I-A, N-4-[4-(hydroxyphenylaminocarbonyl)phenyl]-3,5-di-t-butyl-4-hydroxybenzamide] | > 1 | 4 | – |
| CC(=O)Nc1ccc(OC(=O)c2ccc(NC(=O)c3cc(C(C)(C)C)c(O)c(C(C)(C)C)c3)cc2)cc1 [I-B, N-4-[4-(acetaminophenoxycarbonyl)phenyl]-3,5-di-t-butyl-4-hydroxybenzamide] | > 10 | 11 | – |
| COc1c(C(C)(C)C)cc(C(=O)Nc2ccc(C(=O)Oc3ccc(NC(C)=O)cc3)cc2)cc1C(C)(C)C [I-J, N-4-[4-(acetaminophenoxycarbonyl)phenyl]-3,5-di-t-butyl-4-methoxybenzamide] | 1.2 | 0.92 | – |
| CC1=C(/C=C/C(C)=C/C=C/C(C)=C/C(=O)O)C(C)(C)CCC1 [all-trans-retinoic acid (RA), all-trans-retinoic acid] | – | – | induces cell differentiation [2]: induces cell differentiation |
| O=c1ccc2ccccc2o1 [coumarin] | – | – | teratogenicity [3]: not teratogenic |
| O=c1c(-c2ccc(O)cc2)coc2cc(O)ccc12 [diadzein] | – | – | inhibition of melanoma cell growth (melanoma cell): inhibits melanoma cell growth |

Second part, led by results:

| EC50 [1] [µM] | IC50 (cancer cells) [µM] | SMILES | other results |
| --- | --- | --- | --- |
| > 1 | 2 | COc1c(C(C)(C)C)cc(C(=O)C=Cc2ccc(C(=O)Oc3ccc(NC(C)=O)cc3)cc2)cc1C(C)(C)C [I-N, 1-(3,5-di-t-butyl-4-methoxyphenyl)-3-[4-(4-acetaminophenoxycarbonyl)-phenyl]-2-propen-1-one] | – |
| 8 | 6 | CC(=O)Nc1ccc(OC(=O)c2ccc(OC(=O)c3cc(C(C)(C)C)c(O)c(C(C)(C)C)c3)cc2)cc1 [I-Q, 4'-[(4-acetamino)phenoxycarbonylphenyl] 4-hydroxy-3,5-di-t-butyl-benzoate] | – |
| > 10 | > 10 | CCOC(=O)c1ccc(NC(=O)c2ccc(OC(=O)c3cc(C(C)(C)C)c(O)c(C(C)(C)C)c3)cc2)cc1 [I-R, 4-(4-ethoxycarbonyl-phenylaminocarbonyl)phenyl 3,5-di-t-butyl-4-hydroxybenzoate] | – |
| > 10 | 1.6 | CC(C)(C)c1cc(C(=O)Oc2ccc(C(=O)Nc3ccc(C(=O)O)cc3)cc2)cc(C(C)(C)C)c1O [I-S, 4-(4-carboxy-phenylaminocarbonyl)phenyl 3,5-di-t-butyl-4-hydroxybenzoate] | – |

From US5703130A, “Chalcone retinoids and methods of use of same” (priority 1996, dated 1997)
